In brackets after ≈: the same amount, converted by molar mass.
Key:
Type in all cases: cell-based
Prostaglandin E2 (PGE2) = experiment: PGE2 EIA anti-inflammatory assay in IL-1β or HKPG stimulated cells; conditions: PGE2 level; human embryo palatal mesenchyme cells; IL-1β (10 ng/ml) or heat-killed P. gingivalis (HKPG); overnight incubation
Description: Prostaglandin E2 (PGE2) is a key mediator of periodontal inflammation and its expression is a well-established as a biomarker associated with gingival inflammation. […] The data of Table 9 were obtained generally according to the following method: A 100 μL aliquot of DMEM media (Dulbecco's Modified Eagle Medium) (Invitrogen, Carlsbad, Calif.) containing either IL-1β (10 ng/ml) (Roche Applied Science, Indianapolis Ind.) or 10^8 heat-killed Prophynomonas gingivalis (HKPG) into each well of a sterile 96-well plate (“mirror plate”). An additional 98 μl aliquot of DMEM media containing either IL-1β or HKPG was added to the first well in each row. […]
Each well of a second plate containing growing cells (human embryo palatal mesenchyme cells, catalog no. CRL-1486; ATCC, Manassas, Va.) is washed twice with PBS, after which any remaining media is aspirated from the wells. […] An additional 30 μL aliquot of media is added to each well to adjust the final volume to 100 μL and the level of PGE2 determined using a detection kit generally according to the manufacturer's instructions (PEG2-EIA Kit, catalogue no. 901-001; Assay Designs Inc, Ann Arbor Mich.) and software (GraphPad Prism, GraphPad Software, Inc., San Diego Calif.).

[1] = test system: Staphylococcus aureus (S. aureus); experiment: Minimum Inhibitory Concentration (MIC), skin bacteria; conditions: 18-24 hours of incubation
Description: (§1) Compound (3) was evaluated for its antibacterial efficacy against representative skin bacteria such as Staphylococcus aureus (S. aureus), Corynebacterium minutissimum (C. minutissimum), and Escherichia coli (E. coli). Minimum Inhibitory Concentration (MIC), and a Short Interval Kill Test (SIKT) were performed, and the results are described in Table 6 and Table 7 (below). MIC values against three common skin bacteria were determined for Compound (3) using the following method: A series of two-fold dilutions of Compound (3) was prepared in a 96 well plate and a constant amount of bacteria was added to each well. After 18-24 hours of incubation, bacterial growth was measured with a Spectrophotometric Micro-plate Reader and the MIC values were determined.

[2] = test system: Corynebacterium minutissimum (C. minutissimum); experiment: as above; conditions: 18-24 hours of incubation
Description: as §1

[3] = test system: Escherichia coli (E. coli); experiment: as above; conditions: 18-24 hours of incubation
Description: as §1

[4] = test system: Staphylococcus aureus (S. aureus); experiment: Short Interval Kill Test (SIKT); conditions: 1 minute exposure
Description: (§2) Compound (3) was evaluated for its antibacterial efficacy against representative skin bacteria such as Staphylococcus aureus (S. aureus), Corynebacterium minutissimum (C. minutissimum), and Escherichia coli (E. coli). Minimum Inhibitory Concentration (MIC), and a Short Interval Kill Test (SIKT) were performed, and the results are described in Table 6 and Table 7 (below).
(§3) The SIKT test determines the kill effect of a test compound at a predetermined exposure time. The SIKT values presented below in Table 7, were obtained generally according to the following method: An aliquot of Compound (3) in a volume of 1.2 mL is transferred into a sterile test tube, to which 0.2 mL of a freshly prepared bacterial suspension (OD adjusted to 0.1 at 620 nm) is added and gently mixed. The reaction is neutralized at the 1 minute point by adding a neutralizing broth. The resulting mixture is then further diluted (serial ten-fold dilutions) with Letheen broth and an aliquot of each dilution is plated on MCA (Microbial Count Agar) plates for viable bacterial count.

[5] = test system: Escherichia coli (E. coli); experiment: Short Interval Kill Test (SIKT); conditions: 1 minute exposure
Description: as §2, §3

S. oralis = experiment: Minimum Inhibitory Concentration test, oral bacteria; conditions: Streptococcus oralis, trypticase soy broth, 18-24 hours of incubation
Description: (§4) Table 1 (below) describes the antibacterial efficacy (Minimum Inhibitory Concentration test) of Compound (3) [drawing 5] which is an exemplary compound of the present invention, against common oral bacteria, A. viscosus, S. mutans, S. oralis, S. sanguis, and L. casei. Minimum Inhibitory Concentration values are determined generally according to the following method: A series of two-fold dilutions of compound (3) in trypticase soy broth (Catalog No. 211768; Becton Dickinson, Franklin Lakes N.J.) was prepared in a 96 well plate and a constant amount of bacteria was then added to each well. After 18-24 hours of incubation, bacterial growth was measured with a Spectrophotometric Micro-plate Reader (Powerwave 5×, BioTEK, Winooski Vt.) and the MIC values were determined Results are provided in Table 1: […]

L. casei = experiment: as above; conditions: Lacticaseibacillus casei, trypticase soy broth, 18-24 hours of incubation
Description: as §4

S. mutans = experiment: as above; conditions: Streptococcus mutans, trypticase soy broth, 18-24 hours of incubation
Description: as §4

A. viscosus = experiment: as above; conditions: Actinomyces viscosus, trypticase soy broth, 18-24 hours of incubation
Description: as §4

S. sanguis = experiment: as above; conditions: trypticase soy broth, 18-24 hours of incubation
Description: as §4

Compound | IC50 (Prostaglandin E2 (PGE2)) [ppm] | MIC [1] [µg/mL] | MIC [2] [µg/mL] | MIC [3] [µg/mL] | SIKT (% Reduction in viable count in 1 min.) [4] [%] | SIKT (% Reduction in viable count in 1 min.) [5] [%] | MIC (S. oralis) [µg/mL] | MIC (L. casei) [µg/mL] | MIC (S. mutans) [µg/mL] | MIC (A. viscosus) [µg/mL] | MIC (S. sanguis) [µg/mL]
C=CCc1ccc(O)c(-c2cc(CC=C)ccc2O)c1 [Magnolol, reference compound] | 0.40 | – | – | – | – | – | – | – | – | – | –
CCCc1cccc(-c2cccc(CCC)c2O)c1O [Compound (3), [1,1-Biphenyl]-2,2′-diol,3,3′ dipropyl] | 0.25 | 31.2 (≈ 116 µM) | 62.5 (≈ 231 µM) | 62.5 (≈ 231 µM) | 99.99 | 99.55 | 7.8 (≈ 28.8 µM) | 7.8 (≈ 28.8 µM) | 7.8 (≈ 28.8 µM) | 3.9 (≈ 14.4 µM) | 3.9 (≈ 14.4 µM)

— patent US9561193B2, “Oral and skin care compositions based on a 3,3-Dialkyl-1,1-biphenyl-2,2-diol or a 3,3-Dialkenyl-1,1-biphenyl-2,2-diol” (Colgate-Palmolive Company, priority 2011, dated 2017)
